Some test systems named below: SF-295 CNS; PC-3 prostate; HCT-15 colon; SN12C renal; ACHN renal; UO-31 renal; MDA-N; CCRF-CEM leukemia; NCI-H460 lung; SNB-19 CNS; A498 renal.
Assay in all cases: DTP human tumour cell line panel, 48 h

Experimental findings from PubChem BioAssay (NCI) are described below.

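How tested: cells in 96-well plates exposed to compound for 48 hours at five concentrations. Definition used: TGI = concentration required for complete inhibition of growth.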 Where a SMILES comes first, the peptide text is derived from it. The star is where a group is joined. Boc = CC(C)(C)OC(=O)*; Bn = c1ccc(C*)cc1

The TGI is the concentration at which net growth stops. Higher therefore signals less potent growth arrest. Consider `CN1CCc2c([nH]c3ccccc23)C1`, for which the TGI in the test on SF-295 CNS, in the test with PC-3 prostate, in the test on HCT-15 colon, in the test with SN12C renal, in the test on ACHN renal and in the test on UO-31 renal was over 100 µM in each case. Also, the TGI in the test with MDA-N, with CCRF-CEM leukemia, with NCI-H460 lung and in the test with SNB-19 CNS was over 100 µM each time.

As to `CC1=C(C)CC2C(=O)N(c3cc(C(C)(C)C)ccc3C(C)(C)C)C(=O)C2C1` (configuration not stated), the TGI is over 100 µM with SF-295 CNS; over 100 µM in the test with PC-3 prostate; over 100 µM in the test with HCT-15 colon; over 100 µM with SN12C renal; 23.2 µM in the test with ACHN renal; over 100 µM in the test with UO-31 renal. The total growth inhibition concentration (TGI) with MDA-N, in the test on CCRF-CEM leukemia, in the test with NCI-H460 lung and in the test on SNB-19 CNS was over 100 µM throughout.

In the case of `CO[C@@]12C[C@@H](C)C3=CCC(C)=C3CC1=C(C)C(=O)O2`, the TGI with SF-295 CNS, with PC-3 prostate, in the test on HCT-15 colon, with ACHN renal, in the test on UO-31 renal and in the test with A498 renal was over 100 µM each time. The TGI in the test on CCRF-CEM leukemia, in the test on NCI-H460 lung and with SNB-19 CNS was over 100 µM each time.

With `CC(=O)CCn1c(=S)sc2ccccc21`, the TGI in the test on SF-295 CNS, in the test with PC-3 prostate, in the test with HCT-15 colon, in the test with SN12C renal, in the test with ACHN renal and in the test with UO-31 renal was over 100 µM throughout. Moreover, the concentration for total growth inhibition (TGI) in the test with MDA-N, in the test with CCRF-CEM leukemia, in the test on NCI-H460 lung and in the test on SNB-19 CNS was over 100 µM in each case.

As for `O=C(/C=C/c1ccccc1)Oc1cccc(O)c1`, the TGI in the test on SF-295 CNS was 34.3 µM; in the test with PC-3 prostate, over 100 µM; in the test on HCT-15 colon it was 34.7 µM; in the test with SN12C renal, over 100 µM; with ACHN renal, over 100 µM; in the test with UO-31 renal, over 100 µM. For the same compound, the total growth inhibition concentration (TGI) in the test on MDA-N is over 100 µM; in the test with A498 renal, over 100 µM; in the test on NCI-H460 lung it was over 100 µM; with SNB-19 CNS it was 76.1 µM.

Take `Cc1ccc(-c2c(C#N)c(-c3ccc(C)cc3)n(NS(=O)(=O)c3ccccc3)c(=O)c2C#N)cc1`: the TGI in the test on SF-295 CNS, with PC-3 prostate, in the test on HCT-15 colon, in the test with SN12C renal, in the test with ACHN renal and in the test on A498 renal was over 100 µM in each case. Also, the total growth inhibition concentration (TGI) with CCRF-CEM leukemia was 77.7 µM; in the test on NCI-H460 lung it was over 100 µM; with SNB-19 CNS, over 100 µM.

Turning to `O=[N+]([O-])c1ccc(CN(CCCl)OCCCl)cc1`, the TGI with SF-295 CNS, in the test with PC-3 prostate, with HCT-15 colon, in the test with SN12C renal, in the test on ACHN renal and in the test on UO-31 renal was over 100 µM throughout. Moreover, the total growth inhibition concentration (TGI) in the test with MDA-N, with CCRF-CEM leukemia, in the test on NCI-H460 lung and with SNB-19 CNS was over 100 µM each time.

For the compound `O=C(Nc1ccccc1)c1cc(S(=O)(=O)NC2=NC(c3ccccc3)c3cc(Cl)ccc3N2)c(SSc2cc(Cl)c(C(=O)Nc3ccccc3)cc2S(=O)(=O)NC2=NC(c3ccccc3)c3cc(Cl)ccc3N2)cc1Cl` (configuration not stated), the TGI with SF-295 CNS, with PC-3 prostate, in the test with HCT-15 colon, in the test on SN12C renal, with ACHN renal and in the test with UO-31 renal was over 100 µM in each case. Further, the TGI in the test with MDA-N, with NCI-H460 lung and in the test with SNB-19 CNS was over 100 µM in each case.

Consider `COC(=O)C(CC(C)C)NC(=O)C(C)NC(=O)C(Cc1ccc(OCc2ccccc2)cc1)NC(=O)C(COCc1ccccc1)NC(=O)OC(C)(C)C` (configuration not stated) (Boc-S(Bn)Y(Bn)AL-OMe; configuration not given here), for which the TGI with SF-295 CNS, in the test with PC-3 prostate, in the test with SN12C renal, in the test on ACHN renal, in the test with UO-31 renal and in the test on MDA-N was over 100 µM in each case. Moreover, the TGI in the test with NCI-H460 lung and in the test on SNB-19 CNS was over 100 µM in each case.

As to `COc1ccc(C2SC(N)=Nc3c2c(C)nn3C(=O)c2ccncc2)cc1OC` (configuration not stated), the concentration for total growth inhibition (TGI) in the test with SF-295 CNS, in the test on PC-3 prostate, in the test with HCT-15 colon, with SN12C renal, in the test on ACHN renal and in the test with MDA-N was over 10 µM throughout. The TGI with CCRF-CEM leukemia, in the test with NCI-H460 lung and in the test on SNB-19 CNS was over 10 µM in each case.

Consider `CCCC(=O)NC(NC1CCCCC1)(C(=O)OCC)C(F)(F)F` (configuration not stated), for which the TGI with SF-295 CNS, in the test with PC-3 prostate, in the test on HCT-15 colon, in the test with SN12C renal, with ACHN renal and in the test with UO-31 renal was over 100 µM throughout. Also, the total growth inhibition concentration (TGI) in the test on MDA-N, with CCRF-CEM leukemia, in the test with NCI-H460 lung and with SNB-19 CNS was over 100 µM throughout.

Take `Cc1ccc(/C=N/Nc2cc(C)c3cccc(C)c3n2)s1`: the concentration for total growth inhibition (TGI) in the test with SF-295 CNS turned out to be 21.8 µM; with PC-3 prostate, 40.8 µM; in the test on HCT-15 colon it was 17.4 µM; with SN12C renal, 25.1 µM; in the test with ACHN renal it was 68.5 µM; in the test with UO-31 renal, 38.7 µM. Further, the values for the TGI with MDA-N, in the test on CCRF-CEM leukemia and in the test with SNB-19 CNS were 25.1 µM, over 100 µM and over 100 µM, respectively.

As to `c1ccc(N=C(N2CCCC2)N(CCN2CCCC2)c2ccccc2)cc1`, the TGI is 35.6 µM in the test on SF-295 CNS; over 100 µM with PC-3 prostate; over 100 µM in the test on HCT-15 colon; over 100 µM in the test on SN12C renal; over 100 µM in the test with ACHN renal; over 100 µM in the test on UO-31 renal. In addition, the values for the total growth inhibition concentration (TGI) in the test on CCRF-CEM leukemia, in the test on NCI-H460 lung and in the test with SNB-19 CNS were over 100 µM, 75.8 µM and over 100 µM, respectively.

`COc1cccc(C(=O)Oc2ccc(OS(=O)(=O)c3ccc(C)cc3)cc2)c1C#N`: the total growth inhibition concentration (TGI) with SF-295 CNS, with PC-3 prostate, in the test with HCT-15 colon, in the test on SN12C renal, with ACHN renal and in the test on UO-31 renal was over 100 µM each time. The concentration for total growth inhibition (TGI) in the test with MDA-N, in the test on CCRF-CEM leukemia, with NCI-H460 lung and with SNB-19 CNS was over 100 µM in each case.
